Several values for one entry are separate records, joined by “and”; a condition that tells them apart may be missing. Identical values can stand only once. ± gives the expanded uncertainty stated by the source.
What was measured:
[1] = 101.3 kPa, Liquid
[2] = xn = mol fraction of the nth substance listed; details: 101.3 kPa, Liquid

ClC(Cl)(Cl)Cl [tetrachloromethane]
[1]
Details | mass density | viscosity
303.15 K | 1580.6 ± 6.9 kg/m3 | 0.8689 ± 0.022 mPa·s
308.15 K | 1575.7 ± 6.9 kg/m3 | 0.8307 ± 0.021 mPa·s
313.15 K | 1570.9 ± 6.9 kg/m3 and 1571.3 ± 6.9 kg/m3 | 0.807 ± 0.021 mPa·s and 0.8072 ± 0.041 mPa·s

CCCCO [butan-1-ol] + C1COCCO1
[2], x2 = 0
Details | mass density [kg/m3] | viscosity [mPa·s]
303.15 K | 805.7 ± 2.1 | 2.282 ± 0.1
308.15 K | 797.2 ± 2.2 | 1.895 ± 0.088
313.15 K | 795.5 ± 2.3 | 1.681 ± 0.079

CCCCO [butan-1-ol] + ClC(Cl)(Cl)Cl
[2], x2 = 0
Details | mass density [kg/m3] | viscosity [mPa·s]
303.15 K | 805.7 ± 2.1 | 2.282 ± 0.1
308.15 K | 797.2 ± 2.2 | 1.907 ± 0.088
313.15 K | 795.5 ± 2.3 | 1.681 ± 0.079

C1COCCO1 [1,4-dioxane]
[1]
Details | mass density [kg/m3] | viscosity
303.15 K | 1022.3 ± 2.7 | 1.099 ± 0.027 mPa·s and 1.098 ± 0.054 mPa·s
308.15 K | 1016.7 ± 2.8 | 1.03 ± 0.025 mPa·s
313.15 K | 1012 ± 2.9 | 0.9575 ± 0.024 mPa·s

ClC(Cl)(Cl)Cl [tetrachloromethane] + C1COCCO1
[2]
Details | mass density, 303.15 K [kg/m3] | mass density, 308.15 K [kg/m3] | mass density, 313.15 K [kg/m3] | viscosity, 303.15 K [mPa·s] | viscosity, 308.15 K [mPa·s] | viscosity, 313.15 K [mPa·s]
x2 = 0 | 1580.6 ± 4.5 | 1575.7 ± 4.6 | 1570.9 ± 4.8 | 0.8689 ± 0.022 | 0.8307 ± 0.021 | 0.807 ± 0.021
x2 = 0.1116 | 1520.6 ± 4.4 | 1517.3 ± 4.5 | 1513.2 ± 4.6 | 0.945 ± 0.024 | 0.8954 ± 0.023 | 0.8454 ± 0.022
x2 = 0.2204 | 1462.3 ± 4.2 | 1458.6 ± 4.3 | 1455.1 ± 4.4 | 0.9938 ± 0.025 | 0.9391 ± 0.024 | 0.8848 ± 0.022
x2 = 0.3265 | 1405.3 ± 4 | 1401.1 ± 4.1 | 1396.9 ± 4.2 | 1.036 ± 0.026 | 0.9771 ± 0.024 | 0.9244 ± 0.023
x2 = 0.4299 | 1349 ± 3.8 | 1344.8 ± 3.9 | 1340.9 ± 4 | 1.073 ± 0.026 | 1.01 ± 0.025 | 0.9531 ± 0.024
x2 = 0.5307 | 1294.3 ± 3.6 | 1290.5 ± 3.7 | 1286.9 ± 3.8 | 1.11 ± 0.027 | 1.044 ± 0.026 | 0.9892 ± 0.025
x2 = 0.6291 | 1240.9 ± 3.4 | 1236.2 ± 3.5 | 1232.5 ± 3.7 | 1.136 ± 0.028 | 1.066 ± 0.026 | 1.008 ± 0.025
x2 = 0.7252 | 1187.4 ± 3.3 | 1182.4 ± 3.4 | 1177.9 ± 3.5 | 1.145 ± 0.028 | 1.066 ± 0.026 | 0.9996 ± 0.025
x2 = 0.7724 | 1161.1 ± 3.2 | 1155.9 ± 3.3 | 1150.9 ± 3.4 | 1.145 ± 0.028 | 1.063 ± 0.026 | 0.9971 ± 0.025
x2 = 0.819 | 1134.4 ± 3.1 | 1128.5 ± 3.2 | 1123.2 ± 3.3 | 1.139 ± 0.028 | 1.058 ± 0.026 | 0.9881 ± 0.025
x2 = 0.865 | 1107.7 ± 3 | 1101.6 ± 3.1 | 1096 ± 3.2 | 1.131 ± 0.028 | 1.052 ± 0.026 | 0.9836 ± 0.025
x2 = 0.9105 | 1081 ± 2.9 | 1074.7 ± 3 | 1069.2 ± 3.1 | 1.123 ± 0.028 | 1.05 ± 0.026 | 0.9785 ± 0.024
x2 = 0.9555 | 1052.6 ± 2.8 | 1046.5 ± 2.9 | 1041.2 ± 3 | 1.117 ± 0.027 | 1.046 ± 0.026 | 0.9667 ± 0.024

Reference: the NIST ThermoML archive (doi:10.1021/je030133a)
